Among the data in PubChem BioAssay (NCI) are TGI and GI50 values, retold here.

“And” between values parts separate entries of the source, which are not always exact repeats. Equal entries are not always repeated.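 Results reflect a 48-hour exposure of cells in 96-well plates to compound at five concentrations. GI50 marks 50% less growth. At the TGI there is no net growth.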 Where a SMILES comes first, the peptide text is derived from it. Bridges are numbered along the chain shown (N, C = ends). [ ]: non-standard residue; d: D form. The star is where a group is joined. ξ: configuration not given here. ξNMePhe(4-NMe2) = CNC(Cc1ccc(N(C)C)cc1)C(=O)O; Picolinoyl(3-OH) = O=C(c1ncccc1O)*; ξPip(4-oxo) = O=C1CCNC(C(=O)O)C1; Phg = N[CH](C(=O)O)c1ccccc1; Abu = CC[CH](N)C(=O)O

Common to all, as to assay: growth of human tumour cells (NCI), 48 h
Assay [1] concerns MCF7 breast.
Assay [2] deals with NCI-H460 lung.
Assay [3] relates to 786-0 renal.
In assay [4] the test system is SK-OV-3 ovarian.
Assay [5] concerns M14 melanoma.
Assay [6] deals with SW-620 colon.
In assay [7] the test system is T-47D breast.
Assay [8] deals with CCRF-CEM leukemia.
The subject of assay [9] is U251 CNS.
Assay [10] relates to SNB-19 CNS.
For assay [11], the system named is HT29 colon.
Assay [12] deals with A498 renal.
Assay [13] deals with HL-60(TB) leukemia.
For assay [14], the system named is PC-3 prostate.
Assay [15] deals with SF-268 CNS.
Assay [16] concerns UACC-257 melanoma.
Assay [17] concerns NCI-H23 lung.
Assay [18] has as its system HOP-92 NSCLC.
The subject of assay [19] is BT-549 breast.
Assay [20] concerns NCI-H226 lung.

For the compound `Nc1ncnc2c(C3OC(CO)C(O)C3O)nsc12` (stereo not drawn), the TGI was above 100 µM in assay [1]; above 100 µM in [2]; above 100 µM in [3]; 20.3 µM in assay [4]; above 75 µM in assay [5]; above 100 µM in assay [6]. Moreover, the TGI in assay [7] is above 48.6 µM; in assay [8], 16.5 µM and > 100 µM; in [9], above 100 µM; in assay [10] it was above 100 µM; in assay [11] it was above 100 µM; in [12] it was 1410 nM. In addition, the TGI in assay [13] was 7.5 µM; in assay [15] it was above 100 µM. Besides, the GI50 in assay [4] was 3.25 µM; in [7], below 16.2 nM; in assay [13], 1520 nM; in assay [14] it was 4.6 µM.
With `CCC1NC(=O)C(NC(=O)c2ncccc2O)C(C)OC(=O)C(c2ccccc2)NC(=O)C2CC(=O)CCN2C(=O)C(Cc2ccc(N(C)C)cc2)N(C)C(=O)C2CCCN2C1=O` (stereo not drawn) (tested in a mixture with another compound) ({Picolinoyl(3-OH)}-T[Abu]P[ξNMePhe(4-NMe2)][ξPip(4-oxo)][Phg]; ester 1-C; configuration not given here), the TGI came out at 22.3 µM in assay [16]; 34.5 µM in [17]; 25.5 µM in assay [18]; 53.2 µM in assay [19]; 42.1 µM in assay [20].
